Source: patent US11814407B2, “Multiple coupling and oxidation method” (Roche Innovation Center Copenhagen A/S, priority 2017, dated 2023)
Entries after “also recorded” stand apart in the source; their conditions may differ.

Legend:
[1] = Solubility of oxazaphospholidine phosphoramidite monomers in solvent, visual examination; format: physicochemical; settings: for Solubility over 24 hours in MeCN with addition of pyridine: MeCN + 2.5% pyridine; for Solubility after 24 hours in MeCN: MeCN alone
Method: To a 1.5 mL vial was added 0.013 mmol of amidite after which the solid material was dissolved in 0.13 mL of solvent. Hereafter, the vial was capped, vortexed, and finally left at room temperature for 24 hours. Then, the dissolved material was visually examined regarding the solubility (FIG. 1). If the solution appeared cloudy or otherwise non-homogenous the solubility was set to “no”. If the solution appeared completely homogenous the solubility was set to “yes” (examination repeated after 24 hours).
Solubility of the following monomers was determined as per example 7.

[2] = Stability of amidite solutions by HPLC-MS (UV 254 nm, normalised to 0 hours); format: physicochemical
Method: Stability Determination Method: To complete the analysis the stability of the amidite was investigated using an Agilent 1100 series HPLC-MS with a gradient from 80% A (1% NH4OH in H2O) to 100% B (20% A in MeCN) and a Waters Xterra MS C18 2.1×100 mm column. The mass and UV peak of the mother compound was identified at 0 hours and at 24 hours. Hereafter, the relative stability compared to other by-products was reported by integrating the UV chromatogram (254 nm) and normalizing the area to the chromatogram recorded at 0 hours (FIG. 2).
To a 1.5 mL vial was added 0.013 mmol of amidite after which the solid material was dissolved in 0.13 mL of solvent (with and without Et3N, approximately 5-10 eq). Hereafter, the vial was capped, vortexed, and finally left at room temperature for 24 hours. To investigate the stability of the amidite an Agilent 1100 series HPLC-MS with a gradient from 80% A (1% NH4OH in H2O) to 100% B (20% A in MeCN) and a Waters Xterra MS C18 2.1×100 mm column was used. The mass and UV peak of the mother compound was identified at 0 hours and at 24 hours. Hereafter, the relative stability compared to other by-products was reported. This was again repeated after 48 hours.

## COc1ccc(C(OCC23COC(C(n4cnc5c(NC(=O)c6ccccc6)ncnc54)O2)C3OP2OC(c3ccccc3)C3CCCN32)(c2ccccc2)c2ccc(OC)cc2)cc1 [D-LNA A]
[1]
  Solubility over 24 hours in MeCN with addition of pyridine: the solubility of the monomer is preserved
  Solubility after 24 hours in MeCN: not soluble

## COc1ccc(C(OCC23COC(C(n4cnc5c(NC(=O)c6ccccc6)ncnc54)O2)C3OP2OC(c3ccccc3)C3CCCN32)(c2ccccc2)c2ccc(OC)cc2)cc1 [L-LNA A]
[2]; MeCN + Et3N (approximately 5-10 eq), after 24 hours
  Stability in solution: completely stable
[2]; MeCN + Et3N (approximately 5-10 eq), after 48 hours
  Stability in solution: the majority of the L-LNA A is preserved
[2]; MeCN only, after 24 hours, room temperature
  Stability in solution: most of the L-LNA A was degraded
[2]; MeCN only, after 48 hours, room temperature
  Stability in solution: completely degraded

## COc1ccc(C(OCC2OC(n3cnc4c(NC(=O)c5ccccc5)ncnc43)CC2OP2OC(c3ccccc3)C3CCCN32)(c2ccccc2)c2ccc(OC)cc2)cc1 [L-DNA A]
[1]
  Solubility over 24 hours in MeCN with addition of pyridine: kept in solution; also recorded: the solubility of the monomer is preserved
  Solubility after 24 hours in MeCN: not sufficient to keep the monomer in solution; also recorded: not soluble

## COc1ccc(C(OCC23COC(C(n4cnc5c(=O)[nH]c(N=CN(C)C)nc54)O2)C3OP2OC(c3ccccc3)C3CCCN32)(c2ccccc2)c2ccc(OC)cc2)cc1 [L-LNA G-DMF]
[2]; DCM (best solvent), 24 hours, room temperature
  Amidite left after 24 hours: 10%
[2]; MeCN:DCM, DMF, DMSO, NMP, DCM, DCE, Toluene, 24 hours
  Stability in the solvents where the monomer is soluble: tremendous instability
[1]; MeCN, MeCN:DCE, MeCN:Tol, MeCN:acetone, Dioxane, THF
  Solubility in solvents: unsoluble
[1]; MeCN:DCM, DMF, DMSO, NMP, DCM, DCE, Toluene
  Solubility in solvents: soluble
[1]; acetonitrile solvents
  Solubility in acetonitrile solvents: poorly soluble

## COc1ccc(C(OC[C@@]23CO[C@@H]([C@H](n4cnc5c(=O)[nH]c(NC(=O)C(C)C)nc54)O2)[C@@H]3O[P@]2O[C@H](c3ccccc3)[C@@H]3CCCN32)(c2ccccc2)c2ccc(OC)cc2)cc1 [L-LNA-G-iBu]
[1]; 12 different solvents
  Solubility in all solvents investigated: soluble in all solvents investigated
[1]; 24 h, MeCN, 0.013 mmol amidite in 0.13 mL solvent, room temperature
  Soluble after: 24 h MeCN: no

## COc1ccc(C(OCC2OC(n3cnc4c(NC(=O)c5ccccc5)ncnc43)CC2OP2OC(c3ccccc3)C3CCCN32)(c2ccccc2)c2ccc(OC)cc2)cc1 [D-DNA A]
[1]
  Solubility over 24 hours in MeCN with addition of pyridine: the solubility of the monomer is preserved
  Solubility after 24 hours in MeCN: not soluble
